Usually IC50 stands for the concentration needed to halve the response being measured. The low end stands for greater potency, the high end for weaker potency.

Results on one compound are retold here after ChEMBL document CHEMBL1140309, “p53 Activation by small molecules: application in oncology” (J Med Chem, 2005).

The target of the assay is Tumour suppressor p53/oncoprotein Mdm2 (Homo sapiens, UniProt P04637+Q00987). Kind of assay: Inhibitory activity against MDM2 (murine double minute-2 gene) binding to p53. The class given is protein assay.
Tumour suppressor p53/oncoprotein Mdm2, sequence (P04637 whole entry): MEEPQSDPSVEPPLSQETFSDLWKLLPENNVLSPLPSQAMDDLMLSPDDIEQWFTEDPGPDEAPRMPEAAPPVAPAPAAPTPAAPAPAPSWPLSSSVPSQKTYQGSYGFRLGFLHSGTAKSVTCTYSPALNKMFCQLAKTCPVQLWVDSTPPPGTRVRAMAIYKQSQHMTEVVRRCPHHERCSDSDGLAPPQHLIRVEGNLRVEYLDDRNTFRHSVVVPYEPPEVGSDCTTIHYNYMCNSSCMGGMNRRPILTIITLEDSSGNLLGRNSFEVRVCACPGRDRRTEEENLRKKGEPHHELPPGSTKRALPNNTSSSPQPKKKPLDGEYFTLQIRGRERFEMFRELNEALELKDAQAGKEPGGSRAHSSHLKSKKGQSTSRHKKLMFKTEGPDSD
Tumour suppressor p53/oncoprotein Mdm2, sequence (Q00987 whole entry): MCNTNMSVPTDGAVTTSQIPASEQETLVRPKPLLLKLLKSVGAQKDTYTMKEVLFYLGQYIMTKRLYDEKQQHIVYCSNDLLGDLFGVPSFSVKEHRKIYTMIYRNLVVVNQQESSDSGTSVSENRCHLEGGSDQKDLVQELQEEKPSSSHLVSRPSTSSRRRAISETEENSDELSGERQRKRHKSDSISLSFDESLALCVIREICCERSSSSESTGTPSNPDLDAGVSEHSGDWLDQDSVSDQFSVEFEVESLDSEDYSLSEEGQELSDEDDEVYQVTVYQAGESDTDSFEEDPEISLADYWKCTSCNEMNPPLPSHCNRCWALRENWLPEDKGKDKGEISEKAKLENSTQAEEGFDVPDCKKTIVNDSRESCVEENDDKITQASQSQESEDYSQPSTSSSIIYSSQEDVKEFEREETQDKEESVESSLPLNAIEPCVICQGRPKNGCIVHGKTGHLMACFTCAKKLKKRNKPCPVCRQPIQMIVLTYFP

As to `CC(C)Oc1ccc(C(=O)NS(=O)(=O)c2ccc(NN=C3C(=O)N(c4ccccc4)N(c4ccccc4)C3=O)cc2)cc1`, the IC50 is 30 µM.
